Some test systems named below: SF-539; 786-0; RPMI-8226; HCT-15; CAKI-1; A498; UO-31; COLO 205; K562; RXF 393; SK-MEL-5; MDA-N; NCI-H23; OVCAR-5; SK-MEL-28; SF-268; HCC 2998; A549; SK-MEL-2; PC-3.
Holding throughout (assay): growth of human tumour cells (NCI), 48 h

SMILES strings stand for the structures.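 48-hour exposure; five concentrations; linearly interpolated endpoints. GI50: concentration for 50% inhibition of growth.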 Active and inactive are the calls of the source. Rule as the data show it: active = GI50 up to about 1.1 µM and inactive = higher.

In the case of `O=c1c2nn[nH]c2nc2n1CC(c1ccccc1)S2` (stereo not drawn), the GI50 in the test with SF-539 is > 100 µM (inactive); with 786-0, > 100 µM (inactive); in the test on RPMI-8226, > 100 µM (inactive); with HCT-15 it was more than 100 µM; with CAKI-1 it was 13 µM (inactive); in the test with A498 it was > 100 µM (inactive). Also, the GI50 in the test on UO-31 was 45.3 µM (inactive); in the test on COLO 205 it was > 100 µM (inactive); in the test with K562 it was > 100 µM (inactive); in the test on RXF 393, 29 µM (inactive); in the test with SK-MEL-5, > 100 µM (inactive); with MDA-N it was > 100 µM (inactive). Moreover, the GI50 with NCI-H23, in the test with OVCAR-5, in the test with SK-MEL-28, in the test with SF-268, in the test with HCC 2998 and with A549 was > 100 µM (inactive) throughout.

On to `CC(=O)Nc1sccc1S(=O)(=O)c1ccc(Cl)cc1`, for which the GI50 in the test with SF-539 was > 100 µM (inactive); with SK-MEL-2, > 100 µM (inactive); in the test on 786-0 it was > 100 µM (inactive); with RPMI-8226 it was > 100 µM (inactive); in the test with HCT-15 it was more than 100 µM; with CAKI-1, > 100 µM (inactive). Also, the GI50 in the test on UO-31, in the test with COLO 205, in the test with K562, in the test on RXF 393, in the test on PC-3 and in the test with SK-MEL-5 was > 100 µM (inactive) in each case. Also, the GI50 with NCI-H23, in the test with OVCAR-5, in the test with SK-MEL-28, in the test on SF-268, in the test with HCC 2998 and in the test with A549 was > 100 µM (inactive) in each case.

As to `CCOC(=O)c1c2c(n(Cc3ccccc3)c1C)C(=O)C(=O)c1ccccc1-2`, the GI50 with SF-539 is 0.24 µM (active); with SK-MEL-2, 1.26 µM (inactive); in the test with 786-0, 0.56 µM (active); in the test with RPMI-8226, 0.119 µM (active); in the test with HCT-15, 0.366 µM; in the test on CAKI-1, 0.5 µM (active). Besides, the GI50 in the test with UO-31 was 0.906 µM (active); with COLO 205, 0.705 µM (active); with K562, 0.122 µM (active); in the test on RXF 393, 0.703 µM (active); in the test on PC-3 it was 0.807 µM (active); in the test with SK-MEL-5 it was 0.295 µM (active). For the same compound, the GI50 in the test on NCI-H23 is 0.231 µM (active); in the test with OVCAR-5, 0.541 µM (active); in the test with SK-MEL-28 it was 0.177 µM (active); in the test with SF-268 it was 0.415 µM (active); in the test on HCC 2998 it was 0.56 µM (active); with A549, 0.431 µM (active).

Regarding `COc1ccc(C(=O)N2CCN(c3ccc4c(c3)OCC(=O)N4)CC2)cc1`, the GI50 in the test with SF-539 is > 100 µM (inactive); in the test on SK-MEL-2, > 100 µM (inactive); in the test on 786-0, > 100 µM (inactive); in the test on RPMI-8226, > 100 µM (inactive); in the test with HCT-15 it was more than 100 µM; with CAKI-1, > 100 µM (inactive). Further, the GI50 with UO-31, in the test with COLO 205, with PC-3, in the test on SK-MEL-5, in the test with MDA-N and in the test on NCI-H23 was > 100 µM (inactive) each time. Also, the GI50 in the test with OVCAR-5, in the test with SK-MEL-28, with SF-268, in the test on HCC 2998 and in the test with A549 was > 100 µM (inactive) in each case.

On to `COc1ccc(C2=C(Cl)c3cc(OC)c(OC)cc3C2=O)cc1OC`, for which the GI50 with SF-539 is 21.3 µM (inactive); in the test on SK-MEL-2 it was 14.4 µM (inactive); with 786-0 it was 3.43 µM (inactive); in the test on RPMI-8226 it was 18.1 µM (inactive); in the test on HCT-15 it was 6.9 µM; in the test on CAKI-1 it was 2.28 µM (inactive). In addition, the GI50 is 18.1 µM (inactive) with A498; 16.6 µM (inactive) in the test on UO-31; 3.16 µM (inactive) with COLO 205; 5.7 µM (inactive) in the test on RXF 393; 15.9 µM (inactive) in the test with SK-MEL-5; 18.5 µM (inactive) in the test on MDA-N. Moreover, the GI50 is 12 µM (inactive) with NCI-H23; 19.8 µM (inactive) in the test on OVCAR-5; 18.9 µM (inactive) in the test on SF-268; 22.6 µM (inactive) in the test with HCC 2998; 36.9 µM (inactive) with A549.

As to `COc1cc(/C=C/C=C2\CC(C)C/C(=C\C=C\c3ccc(O)c(OC)c3)C2=O)ccc1O` (stereo not drawn), the GI50 in the test on SF-539 is 22.1 µM (inactive); in the test with SK-MEL-2, 17.1 µM (inactive); with 786-0, 12.4 µM (inactive); in the test with RPMI-8226 it was 7.13 µM (inactive); in the test with HCT-15, 25.1 µM; with CAKI-1, 12.1 µM (inactive). For the same compound, the GI50 with UO-31 was 5.06 µM (inactive); with COLO 205, 16.7 µM (inactive); in the test with K562 it was 3.93 µM (inactive); with RXF 393, 4.55 µM (inactive); in the test on PC-3, 11.3 µM (inactive); in the test with SK-MEL-5, 10.5 µM (inactive). The GI50 was 12.2 µM (inactive) in the test on NCI-H23; 14.4 µM (inactive) in the test on OVCAR-5; 6.92 µM (inactive) in the test with SK-MEL-28; 10.3 µM (inactive) in the test with SF-268; 17.5 µM (inactive) in the test on HCC 2998; 5.11 µM (inactive) with A549.

Turning to `O=C(O)c1ccc(/C=N\N(CCO)C2=NCCN2)cc1`, the GI50 in the test on SF-539 was > 100 µM (inactive); with SK-MEL-2, > 100 µM (inactive); in the test with 786-0 it was > 100 µM (inactive); with RPMI-8226 it was > 100 µM (inactive); with HCT-15, more than 100 µM; with UO-31 it was > 100 µM (inactive). The GI50 with COLO 205, with K562, with RXF 393, with PC-3, in the test on SK-MEL-5 and in the test with MDA-N was > 100 µM (inactive) each time. Also, the GI50 in the test with NCI-H23, in the test with OVCAR-5, with SK-MEL-28, with SF-268, with HCC 2998 and with A549 was > 100 µM (inactive) throughout.

For the compound `CC(C)(C)c1ccc(O)c(C(c2ccc([N+](=O)[O-])cc2)c2cc(C(C)(C)C)ccc2O)c1`, the GI50 in the test with SF-539 was 1.89 µM (inactive); with SK-MEL-2 it was 1.81 µM (inactive); in the test with 786-0, 2.04 µM (inactive); in the test on RPMI-8226 it was 2.37 µM (inactive); with HCT-15 it was 2.13 µM; in the test with CAKI-1, 1.51 µM (inactive). Further, the GI50 is 2.11 µM (inactive) in the test with A498; 1.95 µM (inactive) with UO-31; 2.5 µM (inactive) in the test with COLO 205; 2.73 µM (inactive) with K562; 2.07 µM (inactive) in the test with RXF 393; 1.85 µM (inactive) in the test on PC-3. The GI50 in the test with NCI-H23 is 1.99 µM (inactive); in the test on OVCAR-5 it was 1.82 µM (inactive); in the test with SK-MEL-28, 1.74 µM (inactive); with SF-268, 1.63 µM (inactive); with HCC 2998, 1.95 µM (inactive); with A549, 1.86 µM (inactive).

Turning to `COc1ccccc1/C=C1\SC(=S)N(/C=C2\C(=O)Oc3ccccc3C2=O)C1=O`, the GI50 in the test on SF-539 was 29 µM (inactive); with SK-MEL-2, 21.9 µM (inactive); in the test with 786-0, 34.8 µM (inactive); with HCT-15, 28.1 µM; with CAKI-1, 0.458 µM (active); in the test with UO-31 it was 23.2 µM (inactive). Moreover, the GI50 in the test on COLO 205 was 24 µM (inactive); in the test on K562, 36.6 µM (inactive); in the test with PC-3 it was 38.5 µM (inactive); in the test with SK-MEL-5 it was 20.5 µM (inactive); in the test with MDA-N it was 33.4 µM (inactive); in the test on NCI-H23, 1.62 µM (inactive). The GI50 in the test on OVCAR-5 is 59.8 µM (inactive); with SF-268, 33.3 µM (inactive); in the test with A549, 27.9 µM (inactive).

`CC#N.O[C@@H]1CCCC[C@H]1O.O[C@@H]1CCCC[C@H]1O.[TeH2]`: the GI50 is > 100 µM (inactive) in the test with SF-539; > 100 µM (inactive) with SK-MEL-2; 48.8 µM (inactive) with 786-0; 26.7 µM (inactive) with RPMI-8226; 18.1 µM with HCT-15; > 100 µM (inactive) with CAKI-1. In addition, the GI50 was > 100 µM (inactive) with A498; 47 µM (inactive) with UO-31; > 100 µM (inactive) with COLO 205; 25.8 µM (inactive) in the test with K562; > 100 µM (inactive) in the test on RXF 393; 33.3 µM (inactive) in the test with SK-MEL-5. The GI50 is 20.8 µM (inactive) with NCI-H23; 23.8 µM (inactive) in the test with OVCAR-5; > 100 µM (inactive) in the test on SK-MEL-28; > 100 µM (inactive) in the test on SF-268; > 100 µM (inactive) in the test with HCC 2998; 41.5 µM (inactive) in the test with A549.

For the compound `CCCc1nc(NC#N)nc(C(=O)NC23CC4CC(CC(C4)C2)C3)c1C`, the GI50 in the test on SF-539 was > 100 µM (inactive); in the test with SK-MEL-2, > 100 µM (inactive); in the test on 786-0, > 100 µM (inactive); in the test with RPMI-8226 it was > 100 µM (inactive); in the test on HCT-15 it was more than 100 µM; in the test with CAKI-1 it was > 100 µM (inactive). Further, the GI50 in the test with A498, in the test on UO-31, in the test with COLO 205, in the test with K562, in the test with RXF 393 and in the test on SK-MEL-5 was > 100 µM (inactive) in each case. In addition, the GI50 in the test with NCI-H23, in the test on OVCAR-5, in the test with SK-MEL-28, in the test with SF-268, with HCC 2998 and with A549 was > 100 µM (inactive) in each case.

The values are drawn from ChEMBL document CHEMBL1201862, “PubChem BioAssay data set” (2004).
